In patent publication US20110263693A1, “CELASTROL, GEDUNIN, AND DERIVATIVES THEREOF AS HSP90 INHIBITORS” (DANA-FARBER CANCER INSTITUTE, INC., priority 2006, published 2011):

Assays:
LNCaP cells = assay: Adherent cell growth by luminescent assay of ATP level (CellTiterGlo); assay type: cell-based; details: for LNCaP cell viability at higher concentrations: in the presence of androgen, above EC50 of androgen signaling inhibition; for adherent growth of androgen-stimulated LNCaP cells: luminescent assay of ATP levels
Procedure: To investigate the cellular consequences of celastrol- and gedunin-mediated inhibition, we assessed whether celastrol and gedunin activity results in decreased cell growth, consistent with AR inhibition. […] Second, the compounds' effects on anchorage-independent growth of LNCaP cells was assayed in soft agar (FIG. 6D).
Adherent cell growth was measured by luminescent assay of ATP level (CellTiterGlo, Promega). LNCaP cells were grown in charcoal-stripped media for 2 days prior to simultaneous treatment with 1 nM R1881 and the relevant compound. Synergy was assessed by analyzing the IC50 of one drug over a range of concentrations of the other drug and vice versa. The resulting concentration pairs were visualized by isobologram (Gessner, 1995). Anchorage independence was measured by soft agar assay (Hahn et al., 1999). Compounds were added to both agar layers. Colonies were scored after 3 weeks.
(§1) We also addressed whether celastrol and gedunin activity results in decreased cell growth consistent with inhibition of AR and other HSP90 clients. […] Below this concentration, an intermediate viability inhibition is seen.

[1] = test system: SKBR breast cancer cell line; assay: Apoptosis induction in SKBR cells; assay type: cell-based; details: to a greater extent than existing HSP90 ATP binding site inhibitors
[2] = test system: androgen signaling signature in LNCaP cells; assay: GE-HTS androgen signaling signature assay / screen; details: LNCaP; for effect on the GE-HTS androgen signaling signature outside the screen: with and without 12 hours androgen pretreatment
[3] = test system: LNCaP prostate cancer cell; assay: Apoptosis induction in LNCaP cells; assay type: cell-based; details: at higher concentrations
Text: as §1

HSP90α [4] = molecular target: T1, HSP90α (Homo sapiens, UniProt P07900); assay: Geldanamycin competition assay (Cy3B-geldanamycin fluorescence polarization); assay type: binding; design: purchased Stressgen SPP776 / SPP-776; details: celastrol and gedunin at concentrations up to ~100 μM
Procedure: We first tested whether celastrol or gedunin could compete with Cy3B-geldanamycin for binding to the ATP-binding pocket of purified HSP90α by fluorescence polarization assay (Kim et al., 2004, Llauger-Bufi et al., 2003).
The geldanamycin competition assay was performed as described (He et al., 2006, Kim et al., 2004), except that Cy3B-geldanamycin rather than BODIPY-geldanamycin was used as described herein.
Measurements were taken in black 96-well microtiter plates (Coming #3650). The assay buffer (HFB) contained 20 mM HEPES (K) pH 7.3, 50 mM KCl, 5 mM MgCl2, 20 mM Na2MoO4, 0.01% NP40. Before each use, 0.1 mg/mL bovine gamma globulin (BGG) (Panvera Corporation, Madison, Wis.) and 2 mM DTT (Fisher Biotech, Fair Lawn, N.J.) were freshly added. GM-cy3B was synthesized as previously reported and was dissolved in DMSO to form 10 μM solutions. Cell lysates were prepared rupturing cellular membranes by freezing at −70° C. and dissolving the cellular extract in HFB with added protease and phosphotase inhibitors. Saturation curves were recorded in which GM-cy3B (3 nM) was treated with increasing amounts of cellular lysates.

BCR-ABL1 = assay: Western blot of HSP90 client BCR-ABL1 level; assay type: cell-based, human; details: for protein level of BCR-ABL1: 24 hr, several cell lines, concentration-dependent
Procedure: (§2) To more broadly establish the effects of celastrol and gedunin on the HSP90 pathway, we tested whether these compounds decrease the protein levels of other HSP90 clients.
(§3) Celastrol (Calbiochem) and gedunin (Gaia Chemicals) were solubilized in DMSO. LNCaP.FGC cells (ATCC) were grown in RPMI 1640 (ATCC) with 10% FBS. Ba/F3 cells stably expressing human FLT3, EGFR, and BCR-ABL1 were grown in RPMI 1640, 10% FBS, and 2 ng/ml IL-3. SKBr3 cells were grown in a 1:1 DME:F12 plus 10% FBS.

EGFR = assay: Western blot of HSP90 client EGFR level; assay type: cell-based, human; details: 24 hr, several cell lines, concentration-dependent
Procedure: as §2, §3

HSP90α [5] = molecular target: T1, HSP90α; assay: HSP90 ATP-binding assay (ATP-polyacrylamide pulldown from lysates of treated cells); assay type: cell-based; design: endogenous in cells; host or cells: LNCaP and K562; details: LNCaP and K562 cells treated 24 hr
Procedure: Given their inhibition of HSP90 clients, we next asked whether celastrol and gedunin affect HSP90 activity itself. To assess the effects on HSP90 activity within a cellular context, we treated LNCaP and K562 cells with celastrol or gedunin for 24 hr and subsequently tested the cellular HSP90's ATP-binding activity. ATP-binding activity was assayed by ATP-polyacrylamide pulldown of HSP90 from cell lysates, followed by western blot-based quantification (Bali et al., 2005). This assay identifies HSP90 inhibition, both direct and indirect, that alters HSP90 ATP-binding activity in cell lines (Bali et al., 2005, Soti et al., 2002). […] The decrease in ATP binding by HSP90 cannot be accounted for by changes in HSP90 level (FIG. 7E). Celastrol and gedunin therefore inhibit HSP90 activity itself in a cellular context, either directly or indirectly.
The ATP-binding assay was similar to that in previous reports (Bali et al., 2005, Soti et al., 2002). LNCaP and K562 cells were treated with celastrol and gedunin for 24 hr and then lysed in TNESV buffer (50 mM Tris, 2 mM EDTA, […], 1 mM activated sodium orthovanadate, 25 mM NaF, 1% Triton X-100 [pH 7.5]) for 30 min at 4° C. Lysates were spun for 30 min at 12,000 rpm at 4° C. […]

Row | Compound | LNCaP cell viability at higher concentrations (LNCaP cells) | adherent growth of androgen-stimulated LNCaP cells (LNCaP cells) | apoptosis in SKBR breast cancer cell line [1] | effect on the GE-HTS androgen signaling signature outside the screen [2] | inhibition of the androgen signaling signature in the GE-HTS screen (strong / weak) ([2]; ~20 μM, 24 hr) | apoptosis in LNCaP cells [3] | competition with Cy3B-geldanamycin for binding to the ATP-binding pocket of HSP90α (HSP90α [4]) | protein level of BCR-ABL1 (BCR-ABL1) | protein level of EGFR (EGFR) | ATP-binding activity of HSP90α (HSP90α [5]) | sensitivity of BCR-ABL T315I point mutant to inhibition (BCR-ABL1; Ba/F3 cells, relative to non-mutant)
1 | CC1=C(O)C(=O)C=C2C1=CC=C1[C@@]2(C)CC[C@@]2(C)[C@@H]3C[C@](C)(C(=O)O)CC[C@]3(C)CC[C@]12C [celastrol] | markedly decrease LNCaP prostate cancer cell viability | inhibit adherent and anchorage-independent growth | induct apoptosis | inhibit the GE-HTS androgen signaling signature in a concentration-dependent manner | strong inhibition | induce apoptosis | Neither celastrol nor gedunin significantly competed | lowered the protein levels | lowered the protein levels | inhibited the ATP-binding activity | –
2 | CC(=O)O[C@@H]1C[C@H]2C(C)(C)C(=O)C=C[C@]2(C)[C@H]2CC[C@@]3(C)[C@H](c4ccoc4)OC(=O)[C@H]4O[C@]43[C@@]21C [gedunin] | markedly decrease LNCaP prostate cancer cell viability | inhibit adherent and anchorage-independent growth | induct apoptosis | inhibit the GE-HTS androgen signaling signature in a concentration-dependent manner | – | induce apoptosis | Neither celastrol nor gedunin significantly competed | lowered the protein levels | lowered the protein levels | inhibited the ATP-binding activity | increased sensitivity
